Earlier results, collected in patent publication US20080274188A1, “Oral Vehicle For Systemic Pharmaceuticals” (priority 2005, published 2008).
Where two headings read alike, the source gives them in different places.

Conditions: for Solubility water: words

SMILES: C1CNCCN1 [Piperazine]
- Solubility water (temperature not stated): Freely soluble

SMILES: Cc1onc(-c2ccccc2Cl)c1C(=O)N[C@@H]1C(=O)N2[C@@H]1SC(C)(C)[C@@H]2C(=O)O [Cloxacillin, Cloxacillin (Na monohydrate)]
- Solubility water (temperature not stated): soluble

SMILES: CC(=O)Nc1ccc(O)cc1 [Acetaminophen]
- Solubility water (cold water): Cold-v slight
- Solubility water (hot water): Hot-considerably more

SMILES: COc1ccc2c3c1O[C@H]1[C@@H](O)C=C[C@H]4[C@@H](C2)N(C)CC[C@@]341 [Codeine phosphate]
- Solubility water (ml of water for 1 g) (temperature not stated, 1 g in the stated ml): 1 g in 2.5 ml water.
